Data: PubChem BioAssay AID248 (DTP/NCI, 2004)
Values joined by “and” are separate entries in the source; they are usually repeats but may differ in a detail not shown here. Equal values may be shown once. Toxic doses and inconclusive results are not listed.

Test system: L1210 leukemia ip in BDF1 mice, survival T/C
Experiment: NCI In Vivo Anticancer Drug Screen. Data for tumor model L1210 Leukemia (intraperitoneal) in B6D2F1 (BDF1) mice
Settings: higher = longer survival
Procedure, shortened: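 Value reflects the ratio of survival in compound-treated mice to survival in vehicle-treated controls, with both groups carrying the same transplanted tumor.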

[1] = endpoint: mean survival time, dose: 100.0 mg/kg/injection, schedule: Q01DX009 (ip), vehicle: saline with Tween-80
[2] = endpoint: mean survival time, dose: 200.0 mg/kg/injection, schedule: Q01DX009 (ip), vehicle: saline with Tween-80
[3] = endpoint: mean survival time, dose: 100.0 mg/kg/injection, schedule: Q01DX009 (ip), vehicle: Klucel (hydroxypropylcellulose) (HPC)
[4] = endpoint: mean survival time, dose: 200.0 mg/kg/injection, schedule: Q01DX009 (ip), vehicle: Klucel (hydroxypropylcellulose) (HPC)
[5] = endpoint: mean survival time, dose: 200.0 mg/kg/injection, schedule: Q04DX003 (ip), vehicle: saline with Tween-80
[6] = endpoint: mean survival time, dose: 400.0 mg/kg/injection, schedule: Q04DX003 (ip), vehicle: saline with Tween-80
[7] = endpoint: mean survival time, dose: 100.0 mg/kg/injection, schedule: Q04DX003 (ip), vehicle: Klucel (hydroxypropylcellulose) (HPC)
[8] = endpoint: mean survival time, dose: 200.0 mg/kg/injection, schedule: Q04DX003 (ip), vehicle: Klucel (hydroxypropylcellulose) (HPC)
[9] = endpoint: mean survival time, dose: 400.0 mg/kg/injection, schedule: Q04DX003 (ip), vehicle: Klucel (hydroxypropylcellulose) (HPC)

## CCCC(NC(C)=O)C(=O)O (stereo not given)
endpoint: mean survival time, dose: 100.0 mg/kg/injection, schedule: Q01DX001 (ip), vehicle: saline
  T/C: 94 % of control
endpoint: mean survival time, dose: 100.0 mg/kg/injection, schedule: Q01DX009 (ip), vehicle: saline
  T/C: 94 % of control and 101 % of control
endpoint: mean survival time, dose: 100.0 mg/kg/injection, schedule: Q04DX002 (ip), vehicle: saline
  T/C: 98 % of control and 111 % of control and 112 % of control
endpoint: mean survival time, dose: 100.0 mg/kg/injection, schedule: Q04DX003 (ip), vehicle: saline
  T/C: 98 % of control
endpoint: mean survival time, dose: 200.0 mg/kg/injection, schedule: Q01DX001 (ip), vehicle: saline
  T/C: 96 % of control
endpoint: mean survival time, dose: 200.0 mg/kg/injection, schedule: Q01DX009 (ip), vehicle: saline
  T/C: 94 % of control and 90 % of control
endpoint: mean survival time, dose: 200.0 mg/kg/injection, schedule: Q04DX002 (ip), vehicle: saline
  T/C: 108 % of control and 122 % of control and 123 % of control
endpoint: mean survival time, dose: 200.0 mg/kg/injection, schedule: Q04DX003 (ip), vehicle: saline
  T/C: 96 % of control
endpoint: mean survival time, dose: 400.0 mg/kg/injection, schedule: Q01DX001 (ip), vehicle: saline
  T/C: 93 % of control
endpoint: mean survival time, dose: 400.0 mg/kg/injection, schedule: Q01DX009 (ip), vehicle: saline
  T/C: 99 % of control and 87 % of control
endpoint: mean survival time, dose: 400.0 mg/kg/injection, schedule: Q04DX002 (ip), vehicle: saline
  T/C: 98 % of control and 111 % of control and 112 % of control
endpoint: mean survival time, dose: 400.0 mg/kg/injection, schedule: Q04DX003 (ip), vehicle: saline
  T/C: 95 % of control

## CC(=O)N(Cc1ccccc1)C1C(OCc2ccccc2)OC(CO)C(O)C1OCc1ccccc1 (stereo not given)
endpoint: mean survival time, dose: 100.0 mg/kg/injection, schedule: Q01DX001 (ip), vehicle: saline with Tween-80
  T/C: 89 % of control
endpoint: mean survival time, dose: 200.0 mg/kg/injection, schedule: Q01DX001 (ip), vehicle: saline with Tween-80
  T/C: 96 % of control
endpoint: mean survival time, dose: 400.0 mg/kg/injection, schedule: Q01DX001 (ip), vehicle: saline with Tween-80
  T/C: 100 % of control

## CC(C)CC(Br)C(=O)NCC(=O)NC(Cc1ccccc1)C(=O)O (stereo not given)
[1]
  T/C: 96 % of control
[2]
  T/C: 93 % of control

## CC(=O)Oc1ccccc1[N+](=O)[O-]
[3]
  T/C: 106 % of control
[4]
  T/C: 91 % of control

## O=C(N1CCCCC1)C(Cl)(Cl)Cl
endpoint: mean survival time, dose: 50.0 mg/kg/injection, schedule: Q01DX009 (ip), vehicle: Klucel (hydroxypropylcellulose) (HPC)
  T/C: 98 % of control
[3]
  T/C: 88 % of control
endpoint: mean survival time, dose: 100.0 mg/kg/injection, schedule: Q04DX002 (ip), vehicle: Klucel (hydroxypropylcellulose) (HPC)
  T/C: 92 % of control
endpoint: mean survival time, dose: 200.0 mg/kg/injection, schedule: Q04DX002 (ip), vehicle: Klucel (hydroxypropylcellulose) (HPC)
  T/C: 110 % of control

## Cc1c(F)cc(I)cc1[N+](=O)[O-]
endpoint: mean survival time, dose: 100.0 mg/kg/injection, schedule: Q01DX001 (ip), vehicle: acetone
  T/C: 100 % of control
[1]
  T/C: 103 % of control
endpoint: mean survival time, dose: 100.0 mg/kg/injection, schedule: Q04DX003 (ip), vehicle: saline with Tween-80
  T/C: 100 % of control
endpoint: mean survival time, dose: 200.0 mg/kg/injection, schedule: Q01DX001 (ip), vehicle: acetone
  T/C: 95 % of control
[2]
  T/C: 105 % of control
[5]
  T/C: 100 % of control
endpoint: mean survival time, dose: 400.0 mg/kg/injection, schedule: Q01DX001 (ip), vehicle: acetone
  T/C: 97 % of control
endpoint: mean survival time, dose: 400.0 mg/kg/injection, schedule: Q01DX009 (ip), vehicle: saline with Tween-80
  T/C: 103 % of control
[6]
  T/C: 93 % of control

## O=C(ON=C(c1ccc(Cl)cc1)c1ccc(Cl)cc1)c1ccc(Cl)cc1
endpoint: median survival time, dose: 300.0 mg/kg/injection, schedule: Q01DX009 (ip), vehicle: Klucel (hydroxypropylcellulose) (HPC)
  T/C: 157 % of control
endpoint: median survival time, dose: 500.0 mg/kg/injection, schedule: Q01DX009 (ip), vehicle: Klucel (hydroxypropylcellulose) (HPC)
  T/C: 88 % of control
endpoint: median survival time, dose: 833.0 mg/kg/injection, schedule: Q01DX009 (ip), vehicle: Klucel (hydroxypropylcellulose) (HPC)
  T/C: 74 % of control

## CC(C)CN(CC(C)C)c1nn[nH]n1
[7]
  T/C: 92 % of control
[8]
  T/C: 98 % of control
[9]
  T/C: 98 % of control

## CC(=O)CC(=O)Nc1cc(Cl)c(NC(=O)CC(C)=O)cc1Cl
[5]
  T/C: 121 % of control
[6]
  T/C: 88 % of control

## C(=N\Nc1nc2ccccc2s1)/c1cccnc1
[3]
  T/C: 98 % of control
[4]
  T/C: 98 % of control
endpoint: mean survival time, dose: 400.0 mg/kg/injection, schedule: Q01DX009 (ip), vehicle: Klucel (hydroxypropylcellulose) (HPC)
  T/C: 101 % of control

## CCCCCCCCCCCCCCCCCCNC(=O)CCl
[3]
  T/C: 94 % of control
[7]
  T/C: 92 % of control
[4]
  T/C: 89 % of control
[8]
  T/C: 90 % of control
[9]
  T/C: 97 % of control

## CC(C)(C)N1CC(C(=O)c2ccccc2)C1c1ccc([N+](=O)[O-])cc1 (stereo not given)
[7]
  T/C: 96 % of control
[8]
  T/C: 104 % of control
